Measurements published in patent publication US11214803B2, “Modulators of YAP1 expression” (Ionis Pharmaceuticals, Inc., priority 2019, dated 2022).
Strand notation (5' to 3'): a small letter for the sugar, then the base; units joined by * are phosphorothioate-linked, units joined directly phosphodiester-linked; [ ] holds rarer units or linkages, { } end groups; capitals alone tell only the bases. e = 2'-O-(2-methoxyethyl) (MOE); k = constrained ethyl (cEt); [5mC] = 5-methylcytosine; d = 2'-deoxy (DNA); m = 2'-O-methyl

system: Yap1 mRNA; test: Antisense inhibition of human Yap1 in SNU-449 cells by modified oligonucleotides, single dose (Example 5, RTS36584); format: cell-based; conditions: Table 39; SNU-449 cells, 10,000 cells per well, free uptake, 2,000 nM oligonucleotide, approx. 48 hours; RTS36584; normalized to RIBOGREEN; Yap1 mRNA relative to untreated control
Procedure, shortened: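 SNU-449 cells (10,000/well) took up 2,000 nM oligonucleotide by free uptake for about 48 h. Yap1 mRNA was measured by qRT-PCR with primer probe set RTS36584 and normalised to RIBOGREEN total RNA. Values are % of untreated control; asterisked oligos target the amplicon region.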

Substance	YAP1 (% UTC)
1198383 (kA*dT*dT*dA*dG*dA*dG*dT*dA*dT*dG*kT*eG*kG*e[5mC]*kA; antisense) [Compound 1198383]	31
1198378 (kA*dT*dA*dT*dG*dG*dA*dA*dA*dT*dT*kG*eT*k[5mC]*eT*k[5mC]; antisense) [Compound 1198378]	39
1198389 (kG*dG*dT*dA*dT*dA*dA*d[5mC]*dT*dG*dG*kG*e[5mC]*kA*eA*kA; antisense) [Compound 1198389]	28
1198402 (kG*dG*dA*dA*dG*dA*dT*d[5mC]*dT*dG*dA*kA*eA*k[5mC]*eT*k[5mC]; antisense) [Compound 1198402]	32
1198375 (kG*dG*dA*dA*dA*dT*dT*dG*dT*d[5mC]*dT*k[5mC]*eA*kT*eG*k[5mC]; antisense) [Compound 1198375]	22
1198419 (kA*dT*dT*d[5mC]*dA*dG*dA*dT*dT*dT*dA*kG*eG*kA*eT*kG; antisense) [Compound 1198419]	78
1198398 (kG*d[5mC]*dA*dC*dT*dT*dT*dT*dA*d[5mC]*dA*kT*eT*kA*eG*kG) [Compound 1198398]	18

same assay, conditions: Table 40 (separate experiment); SNU-449 cells, 10,000 cells per well, free uptake, 2,000 nM oligonucleotide, approx. 48 hours; RTS36584; normalized to RIBOGREEN; Yap1 mRNA relative to untreated control

Substance	YAP1 (% UTC)
1198426 (kA*dA*d[5mC]*dT*d[5mC]*dT*dT*dA*dT*dA*dT*kG*eG*kT*eT*kT; antisense) [Compound 1198426]	111
1198749 (kT*eT*kA*dA*dG*d[5mC]*dA*d[5mC]*dT*dT*dT*dT*eA*e[5mC]*kA*kT; antisense) [Compound 1198749]	73
1198723 (kA*eG*kT*dA*dT*dG*dT*dG*dG*d[5mC]*dA*dA*eT*eA*kA*kT; antisense) [Compound 1198723]	57
1198744 (kA*e[5mC]*kT*dT*dT*dT*dA*d[5mC]*dA*dT*dT*dA*eG*eG*kA*kA; antisense) [Compound 1198744]	66
1198439 (kA*dG*dT*dG*dT*dA*dT*dG*dT*d[5mC]*dA*kG*eA*kA*eG*kA; antisense) [Compound 1198439]	6
1198765 (k[5mC]*eA*kG*dA*dT*dT*dT*dA*dG*dG*dA*dT*eG*e[5mC]*kA*kT) [Compound 1198765]	23

same assay, conditions: Table 41; SNU-449 cells, 10,000 cells per well, free uptake, 2,000 nM modified oligonucleotide, approximately 48 hours; RTS36584; normalized to RIBOGREEN; Yap1 mRNA relative to untreated control cells

Substance	YAP1 (% UTC)
1198687 (antisense kA*kT*dT*dG*d[5mC]*dA*dA*dT*d[5mC]*dT*dG*dT*k[5mC]*eT*kG*eA) [Compound 1198687]	55
1198645 (kT*k[5mC]*dT*dA*dT*dA*dT*dT*dA*dG*dA*dG*kT*eA*kT*eG; antisense) [Compound 1198645]	73

same assay, conditions: Table 42 (separate experiment); SNU-449 cells, 10,000 cells per well, free uptake, 2,000 nM modified oligonucleotide, approximately 48 hours; RTS36584; normalized to RIBOGREEN; Yap1 mRNA relative to untreated control cells

Substance	YAP1 (% UTC)
1095483 (antisense k[5mC]*kA*d[5mC]*dT*dG*dA*dG*dG*dT*dA*dT*dA*kA*e[5mC]*kT*eG) [Compound 1095483]	101
1095463 (antisense kA*k[5mC]*dT*dG*dA*dG*dG*dT*dA*dT*dA*dA*k[5mC]*eT*kG*eG) [Compound 1095463]	37

same assay, conditions: Table 43 experiment; SNU-449 cells, 10,000 cells per well, free uptake, 2,000 nM, approximately 48 hours; RTS36584; Yap1 mRNA normalized to RIBOGREEN, relative to untreated control cells

Substance	YAP1 (% UTC)
1198220 (kA*kA*d[5mC]*dA*d[5mC]*dT*dG*dA*dG*dG*dT*eA*eT*eA*kA*k[5mC]; antisense) [Compound 1198220]	89
1198270 (kT*kA*dA*dA*dG*dT*dG*dT*dA*dT*dG*eT*e[5mC]*eA*kG*kA; antisense) [Compound 1198270]	52

same assay, conditions: Table 44 experiment; SNU-449 cells, 10,000 cells per well, free uptake, 2,000 nM, approximately 48 hours; RTS36584; Yap1 mRNA normalized to RIBOGREEN, relative to untreated control cells

Substance	YAP1 (% UTC)
1198900 (kA*kG*dA*dG*dT*dA*dT*dG*dT*dG*dG*k[5mC]*dA*kA*dT*kA; antisense) [Compound 1198900]	11
1095622 (antisense k[5mC]*kT*dG*dA*dG*dG*dT*dA*dT*dA*dA*e[5mC]*kT*eG*kG*eG) [Compound 1095622]	44
1198519 (kG*kT*dA*dA*dT*dA*dT*dT*dG*d[5mC]*dA*eA*kT*e[5mC]*kT*eG; antisense) [Compound 1198519]	20
1198474 (antisense kT*kA*dT*dA*dA*d[5mC]*dT*dG*dG*dG*d[5mC]*eA*kA*eA*kT*eT) [Compound 1198474]	68

same assay, conditions: Table 45; Yap1 mRNA as percent of untreated control, SNU-449 cells, single dose

Substance	YAP1 (% UTC)
1198894 (kG*kA*dA*dA*dT*dT*dG*dT*d[5mC]*dT*d[5mC]*kA*dT*kG*d[5mC]*k[5mC]; antisense) [Compound 1198894]	57
1198942 (k[5mC]*kT*dT*dA*dT*dA*dT*dG*dG*dT*dT*kT*dT*kG*dT*kG; antisense) [Compound 1198942]	42
1198910 (kA*kG*dG*dT*dA*dT*dA*dA*d[5mC]*dT*dG*kG*dG*k[5mC]*dA*kA; antisense) [Compound 1198910]	40

same assay, conditions: Table 46; Yap1 mRNA as percent of untreated control, SNU-449 cells, single dose

Substance	YAP1 (% UT)
1198805 (antisense kA*kT*dT*dG*dT*d[5mC]*dT*d[5mC]*dA*dT*dG*k[5mC]*e[5mC]*kT*eT*kA) [Compound 1198805]	23
1198889 (kT*kT*dA*dG*dA*d[5mC]*dT*dA*dA*dG*dT*kA*eA*kG*eG*kT; antisense) [Compound 1198889]	27
1198850 (kA*kG*dA*dT*dT*dT*dA*dG*dG*dA*dT*kG*e[5mC]*kA*eT*kG; antisense) [Compound 1198850]	33

same assay, conditions: Table 48; Yap1 mRNA level relative to untreated control; modified oligonucleotides targeting SEQ ID NO.: 1 and 2

Substance	YAP1 (% UT)
1197216 (antisense kA*kA*kA*dG*dT*dG*dT*dA*dT*dG*dT*d[5mC]*dA*kG*kA*kA) [Compound 1197216]	12
1198299 (ATATTAGAGTATGTGG; chemistry not fully specified) [Compound 1198299]	27
1198297 (kA*kT*kT*dA*dG*dA*dG*dT*dA*dT*dG*dT*kG*eG*k[5mC]*eA; antisense) [Compound 1198297]	8

same assay, conditions: Table 49; Yap1 mRNA level relative to untreated control; modified oligonucleotides targeting SEQ ID NO.: 1 and 2

Substance	YAP1 (% UT)
1198542 (antisense kT*kG*kT*d[5mC]*dT*d[5mC]*dA*dT*dG*d[5mC]*d[5mC]*dT*kT*kA*kT*eA) [Compound 1198542]	23
1198349 (kA*kT*kG*dT*dA*dA*dT*dA*dT*dT*dG*d[5mC]*kA*eA*kT*e[5mC]) [Compound 1198349]	85
1198549 (antisense kA*kT*kG*dG*dA*dA*dA*dT*dT*dG*dT*d[5mC]*kT*k[5mC]*kA*eT) [Compound 1198549]	84
1198578 (antisense GCTTTGGAAGATCTGA; chemistry not fully specified) [Compound 1198578]	18
1198567 (antisense k[5mC]*kT*kT*dT*dT*dA*d[5mC]*dA*dT*dT*dA*dG*kG*kA*kA*e[5mC]) [Compound 1198567]	54
1198579 (antisense kT*kG*k[5mC]*dT*dT*dT*dG*dG*dA*dA*dG*dA*kT*k[5mC]*kT*eG) [Compound 1198579]	34
1198548 (antisense kT*kG*kG*dA*dA*dA*dT*dT*dG*dT*d[5mC]*dT*k[5mC]*kA*kT*eG) [Compound 1198548]	26

same assay, conditions: Table 50; Yap1 mRNA remaining as percent of untreated control (UT), SNU-449 cells, single dose

Substance	YAP1 (% UT)
1198612 (antisense kA*kA*kG*dT*dG*dT*dA*dT*dG*dT*d[5mC]*dA*kG*kA*kA*eG) [Compound 1198612]	5

same assay, conditions: Table 51; Yap1 mRNA remaining as percent of untreated control (UT), SNU-449 cells, single dose

Substance	YAP1 (% UT)
1200787 (kA*kA*kA*dT*dT*mG*dT*d[5mC]*dT*d[5mC]*dA*dT*dG*k[5mC]*k[5mC]*kT) [Compound 1200787]	38
1197278 (kG*kA*k[5mC]*dT*mA*dA*dG*dT*dA*dA*dG*dG*dT*kT*kT*k[5mC]) [Compound 1197278]	36

same assay, conditions: Table 52; Yap1 mRNA, modified oligonucleotides targeting SEQ ID NO: 1 and 2

Substance	YAP1 (% UT)
1200867 (kA*kA*kG*dT*dA*mA*dG*dG*dT*dT*dT*d[5mC]*d[5mC]*k[5mC]*kA*kG; antisense) [Compound 1200867]	38
1200863 (k[5mC]*kT*kT*dT*dA*mA*dA*dG*dT*dG*dT*dA*dT*kG*kT*k[5mC]; antisense) [Compound 1200863]	41
1200828 (kA*kT*kA*dG*dT*mG*d[5mC]*dT*dT*dT*dG*dG*dA*kA*kG*kA; antisense) [Compound 1200828]	54
1200851 (kG*kT*kA*dA*dT*mA*dT*dT*dG*d[5mC]*dA*dA*dT*k[5mC]*kT*kG; antisense) [Compound 1200851]	25

same assay, conditions: Yap1 mRNA, percent of untreated control; modified oligonucleotides targeting SEQ ID NO: 1 and 2; Table 47

Substance	YAP1 (% UT)
1197176 (antisense kT*kG*kT*d[5mC]*dT*d[5mC]*dA*dT*dG*d[5mC]*d[5mC]*dT*dT*kA*kT*kA) [Compound 1197176]	17
1197190 (antisense k[5mC]*kT*kT*dT*dG*dG*dA*dA*dG*dA*dT*d[5mC]*dT*kG*kA*kA) [Compound 1197190]	57
1197181 (antisense kT*kT*kA*d[5mC]*dA*dT*dT*dA*dG*dG*dA*dA*d[5mC]*kA*kA*kG) [Compound 1197181]	87
